# No end group written: not given here.
# Experiments:
# Format in all cases: cell-based, human
# [1] = system: monocyte-platelet interactions; assay: Monocyte-platelet interactions in flow (receptor-ligand studies); conditions: wall shear stress 0.5 dyne/cm2; relative to P+RGD+ maximum
# Protocol: Platelet-coated Vena8 channels were pre-treated with either 40 μg/ml anti-P-selectin (R&D Systems) or 40 μg/ml of an isotype control for 30 minutes at room temperature, then washed with 5× the volume RPMI. Mononuclear cell suspensions were pre-treated with either RGD or DGR peptides at a concentration of 2.5 mM. Video samples lasting 400 frames (26.3 seconds) were recorded 60 seconds after commencement of flow using a lower power field of view spanning 400 microns and centered at 7500 microns from the flow start point.
# platelets [2] = assay: Platelet adhesion to fibrinogen-coated plates in flow after peptide pre-treatment of platelets; conditions: platelets (PRP) pre-incubated with peptide 2 mM, 20 minutes
# Protocol: (§1) Platelet adhesion experiments were performed using the Vena8 flow chamber described above. Fibrinogen and fibronectin (Sigma) were dissolved in PBS to a final concentration of 200 mcg/ml. Channels of the Vena8 chips were incubated at room temperature in a humidified chamber for 2 hours with the protein solution, autologous plasma, or PBS alone. The channels were washed with 5x the volume RPMI. Platelet-rich-plasma was then perfused through the protein-coated channel at the indicated shear-stress, held constant. For each channel, still images were acquired exactly 90 seconds into the experiment at 4 pre-defined low power fields located along the flow path (fields were centered at 2500, 7500, 12500, and 17500 microns from the start point of infusion).
# (§2) Some experiments involved pre-treating platelet-rich-plasma with protein fragments prior to infusion through the channels. Small RGD peptides, containing the amino-acid sequence Arg-Gly-Asp-Ser; DRG peptides, contain the amino-acid sequence Ser-Asp-Gly-Arg; or fragment 400-411 of fibrinogen, containing the amino-acid sequence His-His-Leu-Gly-Gly-Ala-Lys-Gln-Ala-Gly-Asp-Val, were incubated at a concentration of 2 mM with PRP for 20 minutes at room temperature. The PRP was then perfused through the channels as previously described.
# platelets [3] = assay: Platelet adhesion to fibronectin-coated plates in flow after peptide pre-treatment of platelets; conditions: platelets (PRP) pre-incubated with peptide 2 mM, 20 minutes
# Protocol: as §1, §2
# GILZ [4] = assay: siRNA-mediated knockdown of GILZ in MoDC; conditions: siRNA experiments, ELISA
# Protocol: Silencer select pre-designed and validated GILZ siRNA (Invitrogen), with off-target prediction algorithms, was used to knockdown GILZ expression. Mo-DC were transfected using Lipofectamine RNAiMAX Reagent (Invitrogen). RNAi duplex and lipofectamine reagent were incubated together for 20 min, then added to MoDC cultures and incubated for 2 hr at 37° C. and 5% CO2. Transfected MoDC were treated in an identical fashion as described for the MoDC/lymphocyte co-cultures. MoDC were also transfected with scramble siRNA.
# RNA was isolated from CD11c MoDC using QIAShredder columns (QIAGEN) and the RNeasy Mini Kit (QIAGEN) with on-column Dnase I treatment (QIAGEN). RNA yield and purity were assessed using a NanoDrop ND-1000 spectrophotometer. cDNA was obtained using the High Capacity cDNA Reverse Transcription Kit (Applied Biosystems) in a 96-well thcrmocycicr (MJ Research PTC-200). TaqMan real-time PCR was used to detect transcripts of GILZ, CD80, and CD86. Primers and probes were obtained as pre-designed and validated Taqman Gene Expression Assays (Applied Biosystems). SYBR green real-time PCR (Applied Biosystems) was used to detect transcripts of IL-12, IL-10, IL-6, TNF-alpha, and TGF-β. Primers were designed to span intron junctions using Primer3Plus. Primer melting curves were obtained to confirm a single product. HPRT-1 and GAPDH were used as reference genes. Samples were run in triplicate on a 7500 Real Time PCR System (Applied Biosystems). The delta-delta C(t) method was used to calculate the fold change.
# (§3) Culture supernatants were analyzed in a multiplex format utilizing magnetic beads to IL-6, IL-8, IL-10, IL-12p70, TNF-a, RANTES, MCP-1, and MIP-1β (BioRad Laboratories). For siRNA experiments, supernatants were analyzed with enzyme-linked immunosorbent assay (ELISA) kits for IL-10 (R&D Systems) and IL-12p70 (Enzo Life Science). All samples and standards were run in duplicate and analyzed using the LUMINEX 200 (LUMINEX), or the BioTek EL800 (BioTek).
# GILZ [5] = assay: GILZ mRNA expression in CD11c+ MoDC (real-time PCR); conditions: for GILZ up-regulation, fold change relative to untreated MoDC cultured alone: 24 hr after co-culture/treatment (FIG. 13B)
# Protocol: The tubes emitted UVA light ranging from 320 to 400 nm. The UVA irradiance (power, W/m^2) was measured using a photodiode. […] Non-adherent cells (purity: 66.0±4.5% CD3^+) removed during plastic adherence will now be generally referred to as lymphocytes. […] RNA yield and purity were assessed using a NanoDrop ND-1000 spectrophotometer. cDNA was obtained using the High Capacity cDNA Reverse Transcription Kit (Applied Biosystems) in a 96-well thcrmocycicr (MJ Research PTC-200). TaqMan real-time PCR was used to detect transcripts of GILZ, CD80, and CD86. Primers and probes were obtained as pre-designed and validated Taqman Gene Expression Assays (Applied Biosystems). SYBR green real-time PCR (Applied Biosystems) was used to detect transcripts of IL-12, IL-10, IL-6, TNF-alpha, and TGF-β. Primers were designed to span intron junctions using Primer3Plus. Primer melting curves were obtained to confirm a single product. HPRT-1 and GAPDH were used as reference genes. Samples were run in triplicate on a 7500 Real Time PCR System (Applied Biosystems). The delta-delta C(t) method was used to calculate the fold change.
# MoDC = assay: Cytokine quantification in culture supernatants after LPS stimulation; conditions: for IL-10 to IL-12p70 ratio: after LPS stimulation, untreated MoDC 6.7
# Protocol: (§4) Non-adherent cells (purity: 66.0±4.5% CD3^+) removed during plastic adherence will now be generally referred to as lymphocytes. Lymphocytes were treated with 8-MOP (100 ng/mL) and UVA (1 J/cm^2), washed with PBS, and co-cultured in complete media at 37° C. and 5% CO2 with either PUVA-treated or untreated-MoDC in a ratio of 5 or 10 lymphocytes to 1 MoDC. MoDC treated for 24 hr with 100 nM dexamethasone (Sigma) served as the positive control group. After 24 hr, cells were harvested and MoDC were re-purified.
# as §3
# lymphocytes [6] = assay: Apoptosis of ECP-processed lymphocytes after overnight incubation; conditions: UVA-activated 8-MOP
# CD11c+ MoDC = assay: Apoptosis of CD11c+ MoDC (Annexin-V/7-AAD); conditions: 24 hr
# Protocol: Cultures were incubated with 8-MOP (Uvadex, 20 μg/mL) for 30 min in the dark, and then irradiated with a desktop UVA light box containing a series of 12 linear fluorescent tubes. The tubes emitted UVA light ranging from 320 to 400 nm. The UVA irradiance (power, W/m^2) was measured using a photodiode. Given a measured irradiance and the absorption properties of the various components of the system, it was possible to determine the time (sec) needed to expose the cells to deliver a given dose of UVA radiation (J/cm^2).
# (§5) Monoclonal antibodies included HLA-DR, CD80, CD83, CD3, CD86, CD14, CD11c and GILZ. Antibodies were obtained from Beckman-Coulter and eBioscience and were used at their pre-determined optimal dilutions. Apoptosis was assessed using the Annexin-V Apoptosis Detection Kit (eBioscience), with Annexin-V recognizing phosphatidylserine (PS) on the surface of apoptotic cells. 7-AAD substituted for PI as the cell viability dye. Cells displaying an Annexin-V^+/7-AAD^− phenotype were classified as early apoptotic cells, and cells displaying an Annexin-V^+/7-AAD^+ phenotype were classified as late apoptotic cells. Dual membrane and intracytoplasmic staining was performed using the lntraPrep fix and permeabilization kit (Beckman-Coulter). Background staining was established with appropriate isotype and fluorescence minus one controls. Immunofluorescence was analyzed using a FACSCalibur L (BD Biosciences) within 2 hr of fixation with 2% paraformaldehyde. A minimum of 10,000 events were collected for each group.
# lymphocytes [7] = assay: Apoptosis of lymphocytes (Annexin-V/7-AAD)
# Protocol: as §4, with “Lymphocytes” for “Non-adherent cells (purity: 66.0±4.5% CD3^+) removed during plastic adherence will now be generally referred to as lymphocytes. Lymphocytes”
# as §5
# monocytes = assay: Static co-culture of monocytes with platelets (DC differentiation); conditions: platelets activated with thrombin (2 units) vs not activated; 18 hours static culture
# Protocol: When overnight culture was required, cells were centrifuged and resuspended in RPMI-1640 medium (GIBCO), supplemented with 15% AB serum (Gemini Bio-Products) to a final concentration of 5×10^6 cells/ml. Cells were cultured overnight for 18 hours in 12-well polystyrene tissue culture plates (2 ml per well) at 37° C. in 5% CO2.
# Monoclonal antibodies for immunophenotyping included CD14 (LPS receptor; monocytes), CD11c (integrin subunit; monocytes and DC), HLA-DR (class II MHC molecule), CD83 (DC marker), CD62p (P-selectin; activated platelets), and CD61 (integrin subunit; platelets). Antibodies were obtained from Beckman Coulter (CD14, CD11c, HLADR, CD83) or Sigma (CD62p, CD61) and used at their pre-determined optimal dilutions. Background staining was established with appropriate isotype controls, and immunofluorescence was analyzed using a FC500 flow cytometer (Beckman Coulter). Two-color membrane staining was performed by adding the pre-determined optimal concentrations of both antibodies directly conjugated to FITC or PE and incubating for 20 min at 4° C., followed by washing to remove unbound antibodies. Combined membrane and cytoplasmic staining was performed following manufacturer's instructions for cell fixation and permeabilization (Intraprep kit, Beckman Coulter). […]
# platelets [8] = assay: Plasma protein influence on platelet adhesion to plates; conditions: plates pre-coated with protein; wall shear stress 0.2 to 6.0 dyne/cm^2
# Protocol: as §1
# [9] = 100 ng/mL 8-MOP and 1 J/cm^2 UVA, 24 hr
# [10] = 24 hr after LPS stimulation, multiplex immunoassay
molecule,measurement,setting,value
Arg-Gly-Asp-Ser (RGDS; printed: Arg-Gly-Asp-Ser) [RGD peptides],short-duration monocyte-platelet interactions (less than 3 seconds),[1],did not significantly alter
same,platelet adhesion to fibrinogen-coated plates,platelets [2],not significantly altered
same,platelet adhesion to fibronectin-coated plates,platelets [3],decreased adhesion significantly
C[C@@H]1C[C@H]2[C@@H]3CCC4=CC(=O)C=C[C@]4(C)[C@@]3(F)[C@@H](O)C[C@]2(C)[C@@]1(O)C(=O)CO [dexamethasone],"IL-10 to IL-12p70 ratio, non-transfected MoDC",GILZ [4],15.3
same,"IL-10 to IL-12p70 ratio, transfected with GILZ siRNA",GILZ [4],3.9
same,time after treatment at which GILZ is up-regulated,GILZ [5]; 100 nM dex,2 h
same,"GILZ up-regulation, fold change relative to untreated MoDC cultured alone",GILZ [5],4.29 fold
same,IL-10 to IL-12p70 ratio,MoDC,67.7
"COc1c2occc2cc2ccc(=O)oc12 [8-MOP, 8-methoxypsoralen]",ECP-processed lymphocytes apoptotic,lymphocytes [6],99%
same,percentage of late apoptotic CD11c+ cells,"CD11c+ MoDC; 1 J/cm^2, all doses of 8-MOP tested",less than 13%
same,percentage of late apoptotic CD11c+ cells,"CD11c+ MoDC; 2 J/cm^2, all doses of 8-MOP tested",less than 16%
same,percentage of early apoptotic CD11c+ cells compared to untreated MoDC,CD11c+ MoDC; 2 J/cm^2 and 200 ng/mL,increase
same,8-MOP concentration needed for an effect on GILZ expression,GILZ [5]; 0.5 J/cm^2 UVA,200 ng/mL
same,time GILZ remained significantly elevated,GILZ [5]; 8-MOP and UVA light (FIG. 10F),72 h
same,"GILZ expression increase, combination of 8-MOP and UVA light","GILZ [5]; 24 hr, relative to untreated MoDC (FIG. 10E)",5.5 fold
same,"GILZ expression, 8-MOP alone","GILZ [5]; without UVA light, 24 hr (FIG. 10E)",did not effect GILZ expression
same,percentage of early apoptotic lymphocytes,lymphocytes [7]; [9],44.3%
same,percentage of late apoptotic lymphocytes,lymphocytes [7]; [9],33.7%
same,time after treatment at which lymphocytes display Annexin-V,lymphocytes [7]; 1 J/cm^2 and 100 ng/mL,2 h
HHLGGAKQAGDV,platelet adhesion to fibrinogen-coated plates,platelets [2],significantly decreased
same,platelet adhesion to fibronectin-coated plates,platelets [3],had no effect
8-methoxypsoralen [8-MOP],"IL-10 to IL-12p70 ratio, non-transfected MoDC",GILZ [4],8.4
same,"IL-10 to IL-12p70 ratio, transfected with GILZ siRNA",GILZ [4],2.9
same,"GILZ up-regulation, fold change relative to untreated MoDC cultured alone",GILZ [5],2.78 fold
same,production of IL-10,MoDC; [10],increased production of IL-10
same,production of pro-inflammatory cytokines and chemokines,MoDC; [10],"decreased production of all pro-inflammatory cytokines and chemokines tested, except TNF-α and IFN-γ"
same,IL-10 to IL-12p70 ratio,MoDC,38.7
thrombin,monocyte differentiation (cells expressing DC markers),monocytes,did not cause a discernible difference
fibrinogen,platelet adhesion to coated plates in flow,platelets [8],highest concentrations of platelets adhered
